According to US12171864B2, “Biological self-assembled nanocrystal injection having a lymphatic targeting function and preparation method” (SHENZHEN CHINA RESOURCES JIUCHUANG MEDICAL AND …, priority 2017, dated 2024):
Counter-ions that a name gives are not always drawn.

Tests used:
injection site = test: Effect of the osmotic pressure on the irritation of the injection site (H&E staining); format: in vivo, Kunming mice
From the text: (§1) Mitoxantrone hydrochloride was used as a model drug. The osmotic pressure of the injection was adjusted to 112, 196, 285, 307, 1503, 2317, and 3011 mmol/Kg, respectively. The mode of administration of interstitial injection was selected for subcutaneous injection in the paws of Kunming mice. At the pre-set time points, the mice were sacrificed by cervical dislocation, and the administration sites of the mice were taken for H&E staining to evaluate local irritation.

lymph nodes [1] = test: Effect of the osmotic pressure on the drug targeting ability (lymph node staining); format: in vivo, Kunming mice
From the text: as §1, with “the first, second and third classes” for “the administration sites”, “of lymph nodes” for “of the mice”, “were removed” for “were taken”, “for observation of staining.” for “for H&E staining to evaluate local irritation.”

lymph nodes [2] = test: Effect of pH on the drug targeting ability (lymph node staining); format: in vivo, Kunming mice
From the text: Mitoxantrone hydrochloride was used as a model drug. The pH of the injection was adjusted to 1.5, 2.0, 2.5, 3.5, 4.5, 5.5, and 6.0, respectively. The mode of administration of interstitial injection was selected for subcutaneous injection in the paws of Kunming mice. At the pre-set time points, the mice were sacrificed by cervical dislocation, and the first, second and third classes of lymph nodes of the mice were removed for observation of staining.

[3] = Effect of pH on the drug stability (drug content after 0.22 μm filtration); format: physicochemical; details: filtered 0.22 μm
Description: Mitoxantrone hydrochloride was used as a model drug. The pH of the injection was adjusted to 1.5, 2.0, 2.5, 3.5, 4.5, 5.5, 6.0, 6.5, and 7.0, respectively. At one hour after adjusting the pH value, the content of the drug was determined after filtration through a 0.22 μm membrane. When the pH was between 1.5 and 6.0, the drug content was from 98.45±0.61% to 101.72±0.20%.

Compound: O=C1c2c(O)ccc(O)c2C(=O)c2c(NCCNCCO)ccc(NCCNCCO)c21 [Mitoxantrone hydrochloride]
- local irritation of the injection site (injection site; osmotic pressure 3011 mmol/Kg, subcutaneous injection in the paws): redness and swelling occurred and the H&E staining showed local irritation
- local irritation of the injection site (injection site; other osmotic pressure values (112, 196, 285, 307, 1503, 2317 mmol/Kg)): did not show obvious local irritation
- color of third class of lymph nodes (lymph nodes [1]; osmotic pressure 285 or 2317 mmol/Kg): light blue
- staining of lymph nodes (lymph nodes [1]; osmotic pressure between 285 and 2317 mmol/Kg): all the three classes of lymph nodes could be stained
- staining of lymph nodes (lymph nodes [1]; osmotic pressure between 307 and 1503 mmol/Kg): all the three classes of lymph nodes could be stained into dark blue
- staining of lymph nodes (lymph nodes [1]; osmotic pressure less than 285 mmol/Kg): only one class of lymph nodes could be stained
- color of third class of lymph nodes (lymph nodes [2]; pH 2.0, 2.5 or 6.0, subcutaneous injection in the paws): light blue
- staining of lymph nodes (lymph nodes [2]; pH between 2.0 and 6.0, subcutaneous injection in the paws): the three classes of lymph nodes could be stained
- staining of lymph nodes (lymph nodes [2]; pH between 3.5 and 5.5, subcutaneous injection in the paws): all the three classes of lymph nodes could be stained into dark blue
- staining of lymph nodes (lymph nodes [2]; pH less than 2.0, subcutaneous injection in the paws): only one class of lymph nodes could be stained
- drug content ([3]; pH 6.5, one hour after adjusting pH): 83.76±0.53%
- drug content ([3]; pH 7.0, one hour after adjusting pH): 75.38±0.22%
